Patent EP0838474B1, “PEPTIDE THAT INHIBITS BLOOD TRIGLYCERIDE LEVEL RISE AND BLOOD TRIGLYCERIDE LEVEL RISE INHIBITOR CONTAINING SAID PEPTIDE AS ACTIVE INGREDIENT” (MG PHARMA INC., priority 1995, dated 1997)
Residues, ends and D or L forms follow the SMILES beside them. No end group written: not given here.

Tested on: TG level in blood
Assay: Serum TG elevation inhibiting action at the time of in vivo lipid loading (olive oil)
Parameters: species or system albino mice
Conditions: for Ratio of Increase in Blood TG Levels (%): blood collected after 3 hours; for ID^50: Dose (mg/mouse) exhibiting 50% inhibition: oral, with 250 mg olive oil, blood TG after 3 hours; for Specific Activity: relative to the proteolysate (= 1)
Protocol: Serum TG elevation inhibiting action at the time of in vivo lipid loading was examined on the three peptides of the invention inhibiting elevations of TG levels in blood (i.e., the peptide having the amino acid sequence of SEQ ID NO: 1 and the peptides Val-Thr-Leu and Val-Tyr-Pro synthesized by the method described in Example 4). Healthy albino mice (5-10 weeks old; body weight: about 20-30 g) were used in this experiment. To each mouse, 250 mg of olive oil and an aqueous solution of the above peptide were administered orally. Three hours thereafter, blood was collected under anesthesia with Nembutal. After separation of the blood, the TG level in blood was determined.

| Molecule | Ratio of Increase in Blood TG Levels (%) (dose 0.1 mg/mouse oral with 250 mg olive oil) | Ratio of Increase in Blood TG Levels (%) (dose 0.2 mg/mouse oral with 250 mg olive oil) | Ratio of Increase in Blood TG Levels (%) (dose 1.0 mg/mouse oral with 250 mg olive oil) | Ratio of Increase in Blood TG Levels (%) (dose 2.5 mg/mouse oral with 250 mg olive oil) | Ratio of Increase in Blood TG Levels (%) (dose 5.0 mg/mouse oral with 250 mg olive oil) | ID^50: Dose (mg/mouse) exhibiting 50% inhibition | Specific Activity | Ratio of Increase in Blood TG Levels (%) (dose 1x10^-3 mg/mouse oral with 250 mg olive oil) | Ratio of Increase in Blood TG Levels (%) (dose 1x10^-4 mg/mouse oral with 250 mg olive oil) | Ratio of Increase in Blood TG Levels (%) (dose 4x10^-4 mg/mouse oral with 250 mg olive oil) | Ratio of Increase in Blood TG Levels (%) (dose 4x10^-5 mg/mouse oral with 250 mg olive oil) |
| --- | --- | --- | --- | --- | --- | --- | --- | --- | --- | --- | --- |
| CC(C)C[C@H](NC(=O)[C@@H](NC(=O)[C@@H](N)C(C)C)[C@@H](C)O)C(=O)O [Val-Thr-Leu, H-Val-Thr-Leu-OH] (H-Val-Thr-Leu-OH) | 30 | 33 | 73 | 76 | 79 | 0.43 mg/mouse | 65 |  |  |  |  |
| LVVYPWT [SEQ ID NO: 1, Leu-Val-Val-Tyr-Pro-Trp-Thr] |  |  |  |  |  | 5.6x10^-4 mg/mouse | 50000 | 65 | 33 | 33 | 14 |
